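Values below derive from 48-hour exposures of cells grown in 96-well plates, with endpoints linearly interpolated between the two concentrations bracketing the appropriate inhibition level. GI50: concentration for 50% inhibition of growth.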 The source made the active and inactive calls. Cut-off read from the data, not from the text of the source: active = GI50 up to about 1.1 µM and inactive = higher.
Key:
Assay in all cases: NCI anticancer screen, dose series, 48 h
786-0 = tested on: 786-0
A498 = tested on: A498
A549 = tested on: A549
ACHN = tested on: ACHN
BT-549 = tested on: BT-549
CAKI-1 = tested on: CAKI-1
CCRF-CEM = tested on: CCRF-CEM
COLO 205 = tested on: COLO 205
DU-145 = tested on: DU-145
EKVX = tested on: EKVX
HCC 2998 = tested on: HCC 2998
HCT-116 = tested on: HCT-116
HCT-15 = tested on: HCT-15
HOP-62 = tested on: HOP-62
HT-29 = tested on: HT-29
Hs-578T = tested on: Hs-578T
IGROV-1 = tested on: IGROV-1
K562 = tested on: K562
KM12 = tested on: KM12
LOX IMVI = tested on: LOX IMVI
M14 = tested on: M14
MCF7 = tested on: MCF7
MDA-MB-231 = tested on: MDA-MB-231
MDA-MB-435 = tested on: MDA-MB-435
MDA-N = tested on: MDA-N
MOLT-4 = tested on: MOLT-4
Malme-3M = tested on: Malme-3M
NCI-H23 = tested on: NCI-H23
NCI-H460 = tested on: NCI-H460
NCI-H522 = tested on: NCI-H522
NCI/ADR-RES = tested on: NCI/ADR-RES
OVCAR-3 = tested on: OVCAR-3
OVCAR-4 = tested on: OVCAR-4
OVCAR-5 = tested on: OVCAR-5
OVCAR-8 = tested on: OVCAR-8
PC-3 = tested on: PC-3
RPMI-8226 = tested on: RPMI-8226
RXF 393 = tested on: RXF 393
SF-268 = tested on: SF-268
SF-295 = tested on: SF-295
SF-539 = tested on: SF-539
SK-MEL-28 = tested on: SK-MEL-28
SK-MEL-2 = tested on: SK-MEL-2
SK-MEL-5 = tested on: SK-MEL-5
SK-OV-3 = tested on: SK-OV-3
SN12C = tested on: SN12C
SNB-19 = tested on: SNB-19
SNB-75 = tested on: SNB-75
SR = tested on: SR
SW-620 = tested on: SW-620
T47D = tested on: T47D
TK-10 = tested on: TK-10
U-251 = tested on: U-251
UACC-257 = tested on: UACC-257
UACC-62 = tested on: UACC-62
UO-31 = tested on: UO-31
HL-60 = tested on: HL-60

Measured: GI50

COC(=O)C1=CSC2(S1)C(C(=O)OC)=CSc1c2ss/c1=N\c1ccccc1 (stereo not drawn)
active: MOLT-4 0.714 µM | Malme-3M 0.813 µM | RPMI-8226 0.497 µM | SR 0.605 µM
1.74 µM: HCT-15
inactive: 786-0 1.49 µM | A498 1.64 µM | A549 2.52 µM | ACHN 2.56 µM | BT-549 2.74 µM | CAKI-1 2.98 µM | CCRF-CEM 1.6 µM | COLO 205 2.16 µM | DU-145 2.96 µM | EKVX 4.59 µM | HCC 2998 1.72 µM | HCT-116 1.83 µM | HOP-62 2.88 µM | HT-29 2.48 µM | Hs-578T 2.55 µM | IGROV-1 2.47 µM | K562 2.7 µM | KM12 2.68 µM | LOX IMVI 1.67 µM | M14 2.02 µM | MCF7 3.79 µM | MDA-MB-231 2.07 µM | MDA-MB-435 1.78 µM | MDA-N 2.17 µM | NCI-H23 2.47 µM | NCI-H460 3.07 µM | NCI-H522 1.25 µM | NCI/ADR-RES 1.69 µM | OVCAR-3 3.24 µM | OVCAR-4 1.87 µM | OVCAR-5 3.66 µM | OVCAR-8 1.81 µM | PC-3 5.08 µM | RXF 393 1.78 µM | SF-268 3.02 µM | SF-295 1.81 µM | SF-539 1.38 µM | SK-MEL-28 2.38 µM | SK-MEL-2 2 µM | SK-MEL-5 2.53 µM | SK-OV-3 2.72 µM | SN12C 1.88 µM | SNB-19 2.47 µM | SNB-75 2.22 µM | SW-620 2.51 µM | T47D 7.64 µM | TK-10 2.7 µM | U-251 2.4 µM | UACC-257 2.43 µM | UACC-62 1.6 µM | UO-31 2.52 µM

O=C1N(c2ccccc2)C(=S)/C(=C/c2ccc(Cl)cc2)N1c1ccc(Cl)cc1
inactive: 786-0 23.2 µM | A498 79.8 µM | A549 > 100 µM | ACHN 19.1 µM | BT-549 44.4 µM | CAKI-1 > 100 µM | CCRF-CEM 18.1 µM | COLO 205 27.5 µM | DU-145 53 µM | EKVX 38.5 µM | HCC 2998 > 100 µM | HCT-116 20 µM | HL-60 32.5 µM | HOP-62 32.2 µM | HT-29 59.3 µM | Hs-578T 27 µM | IGROV-1 41.3 µM | K562 41.9 µM | KM12 52 µM | LOX IMVI 22.2 µM | M14 61.9 µM | MCF7 81.1 µM | MDA-MB-231 27 µM | MDA-MB-435 35.6 µM | MDA-N 32.9 µM | Malme-3M 20.6 µM | NCI-H23 44.3 µM | NCI-H460 > 100 µM | NCI-H522 15.9 µM | NCI/ADR-RES 77.3 µM | OVCAR-3 35.2 µM | OVCAR-4 28.2 µM | OVCAR-5 78.3 µM | OVCAR-8 33.6 µM | PC-3 > 100 µM | RPMI-8226 18.3 µM | RXF 393 33.2 µM | SF-268 46.9 µM | SF-295 38.4 µM | SF-539 21.1 µM | SK-MEL-28 34.8 µM | SK-MEL-2 43.7 µM | SK-MEL-5 46.6 µM | SK-OV-3 27.1 µM | SN12C 52 µM | SNB-19 48.4 µM | SNB-75 12.6 µM | SW-620 36.1 µM | T47D 63.8 µM | TK-10 26.7 µM | U-251 28.1 µM | UACC-257 55.8 µM | UACC-62 15.8 µM | UO-31 28.5 µM
26.9 µM: HCT-15
active: MOLT-4 0.923 µM | SR 0.571 µM
